Columns and labels:
Type in all cases: physicochemical
[1] = Slurry conversion experiment (form A, form B and form K crystals mixed and shaken in mixed solvent); conditions: 25° C., 2000 rpm
Experimental: The powder X-ray diffraction measurement for Example 3-2, Example 3-3, Example 3-4, Example 3-5, Example 3-6, Example 3-7, Example 3-9, Example 3-16, Example 3-17, Example 3-22, Example 5-1, Example 5-2, Example 5-3, Example 5-4, Example 5-5, Example 5-6, Example 5-7, Example 5-8, and Example 5-9 was performed under the following conditions. • Measurement apparatus: D8 Discover, 2D VANTEC-500 solid state detector (manufactured by Bruker) • Radiation source: CuKα • Tube voltage and tube current: 50 kV and 1000 μA • Measurement range: 5 to 31° • Exposure time: 40 seconds
(§1) The form A crystal (3.0 mg), form B crystal (3.0 mg), and form K crystal (3.0 mg) of compound 1 were mixed, and a mixed solvent of acetone-heptane (1:1 (v/v), 0.030 mL) and one grain of glass bead were added. Using a shaker (BioShaker M⋅BR-022UP manufactured by TAITEC CORPORATION), the mixture was shaken at 25° C., 2000 rpm for 9 days, and then filtered and dried under reduced pressure to obtain a crystal (form B) of compound 1. […] It was confirmed that the form B crystal is a stable form in the mixed solvent of acetone-heptane (1:1 (v/v)).
as §1, with “(3.1” for “(3.0”, “2-propanol-heptane” for “acetone-heptane”
as §1, with “K crystal (3.1 mg) of” for “K crystal (3.0 mg) of”, “solvent of ethanol-heptane (1:1 (v/v),” for “solvent of acetone-heptane (1:1 (v/v),”, “solvent of ethanol-heptane (1:1 (v/v)).” for “solvent of acetone-heptane (1:1 (v/v)).”
as §1, with “acetone-water” for “acetone-heptane”
as §1, with “B crystal (3.1 mg), and” for “B crystal (3.0 mg), and”, “K crystal (3.1 mg) of” for “K crystal (3.0 mg) of”, “solvent of 2-propanol-water (1:1 (v/v),” for “solvent of acetone-heptane (1:1 (v/v),”, “solvent of 2-propanol-water (1:1 (v/v)).” for “solvent of acetone-heptane (1:1 (v/v)).”
The form A crystal (3.1 mg), form B crystal (3.0 mg), and form K crystal (3.1 mg) of compound 1 were mixed, and a mixed solvent of ethanol-water (1:1 (v/v), 0.030 mL) and one grain of glass bead were added. Using a shaker (BioShaker M⋅BR-022UP manufactured by TAITEC CORPORATION), the mixture was shaken at 25° C., 2000 rpm for 9 days, and then filtered and dried under reduced pressure to obtain a crystal (form B) of compound 1. […] It was confirmed that the form B crystal is a stable form in the mixed solvent of ethanol-water (1:1 (v/v)). […]

[2] = Powder X-ray diffraction measurement at each relative humidity (influence of humidity on the crystal form); conditions: 35.0 °C
Experimental: (§2) The powder X-ray diffraction measurement for Example 3-12 was performed under the following conditions to evaluate the crystal form at each relative humidity. The measurement was carried out at the time points between dropping the relative humidity to 0% and raising it to 90%: 0% (FIG. 21(A)), 10% (FIG. 21(B)), 20% (FIG. 21(C)), 50% (FIG. 21(D)), and 90% (FIG. 21(E)). • Measurement apparatus: SmartLab System, D/Tex Ultra detector, humidity generator HUM-SL (manufactured by Rigaku Corporation) • Radiation source: CuKα1 • Tube voltage: 45 kV • Tube current: 200 mA • Scanning range: 4 to 35° • Scanning speed: 5°/min • Sampling width: 0.02° • Humidity change conditions:
as §2, with “3-13” for “3-12”, “24(A)), 30%” for “21(A)), 10%”, “24(B)),” for “21(B)), 20% (FIG. 21(C)),”, “24(C)),” for “21(D)),”, “24(D)).” for “21(E)).”, “conditions: […]” for “conditions:”

[3] = Thermogravimetry-differential thermal analysis (TG-DTA); conditions: 10° C./min, nitrogen
Experimental: The thermogravimetry-differential thermal analysis (TG-DTA) for Example 3-8, Example 3-9, Example 3-12, Example 3-13, Example 3-17, and Example 3-19 was performed under the following conditions. • Measurement apparatus: STA7200RV+AS-3T (manufactured by Hitachi High-Tech Science Corporation) • Measurement range: 30 to 350° C. • Heating rate: 10° C./min • Atmosphere: nitrogen • Measurement: The sample was weighed in an open aluminum pan and covered with a mesh to perform the measurement.

stable form in slurry conversion ([1]; 2-propanol-heptane (1:1 (v/v)), 9 days) | stable form in slurry conversion ([1]; 2-propanol-water (1:1 (v/v)), 9 days) | stable form in slurry conversion ([1]; 2-propanol-water (1:4 (v/v)), 9 days) | stable form in slurry conversion ([1]; acetone-heptane (1:1 (v/v)), 9 days) | stable form in slurry conversion ([1]; acetone-water (1:1 (v/v)), 9 days) | stable form in slurry conversion ([1]; acetone-water (1:4 (v/v)), 9 days) | stable form in slurry conversion ([1]; ethanol-heptane (1:1 (v/v)), 9 days) | stable form in slurry conversion ([1]; ethanol-water (1:1 (v/v)), 9 days) | stable form in slurry conversion ([1]; ethanol-water (1:4 (v/v)), 7 days) | crystal form at a relative humidity of 0% [2] | weight reduction ([3]; crystal of Example 3-8 (from acetone/heptane)) | weight reduction ([3]; crystal of Example 3-9 (from 2-propanol/heptane)) | SMILES
a stable form | a stable form | a stable form | a stable form | a stable form | a stable form | a stable form | a stable form | a stable form | transformed into the form Y |  |  | CCC[C@H]1C(=O)N[C@@H]([C@@H](C)CC)C(=O)N2CCC[C@H]2C(=O)N(C)[C@H]2C/C=C\CCN(C2=O)[C@@H](Cc2ccc(C(F)(F)F)cc2)C(=O)N(C)CC(=O)N[C@@H](CCc2ccc(C(F)(F)F)c(OC)c2)C(=O)N2C[C@H](OCC)C[C@H]2C(=O)N(C)C2(CCC2)C(=O)N(C)[C@@H](C2CCCC2)C(=O)N(C)[C@H](C(=O)N(C)C)CC(=O)N1C [form B]
 |  |  |  |  |  |  |  |  | transformed into the form J | 3 wt % | 2 wt % | CCC[C@H]1C(=O)N[C@@H]([C@@H](C)CC)C(=O)N2CCC[C@H]2C(=O)N(C)[C@H]2C/C=C\CCN(C2=O)[C@@H](Cc2ccc(C(F)(F)F)cc2)C(=O)N(C)CC(=O)N[C@@H](CCc2ccc(C(F)(F)F)c(OC)c2)C(=O)N2C[C@H](OCC)C[C@H]2C(=O)N(C)C2(CCC2)C(=O)N(C)[C@@H](C2CCCC2)C(=O)N(C)[C@H](C(=O)N(C)C)CC(=O)N1C [form A]
